Legend:
RARγ = molecular target: T1, RARγ (Homo sapiens, UniProt P13631); assay: ligand binding assay, RARγ; settings: read-out: RAR Bind Ki γ
T1 sequence (P13631 1-454): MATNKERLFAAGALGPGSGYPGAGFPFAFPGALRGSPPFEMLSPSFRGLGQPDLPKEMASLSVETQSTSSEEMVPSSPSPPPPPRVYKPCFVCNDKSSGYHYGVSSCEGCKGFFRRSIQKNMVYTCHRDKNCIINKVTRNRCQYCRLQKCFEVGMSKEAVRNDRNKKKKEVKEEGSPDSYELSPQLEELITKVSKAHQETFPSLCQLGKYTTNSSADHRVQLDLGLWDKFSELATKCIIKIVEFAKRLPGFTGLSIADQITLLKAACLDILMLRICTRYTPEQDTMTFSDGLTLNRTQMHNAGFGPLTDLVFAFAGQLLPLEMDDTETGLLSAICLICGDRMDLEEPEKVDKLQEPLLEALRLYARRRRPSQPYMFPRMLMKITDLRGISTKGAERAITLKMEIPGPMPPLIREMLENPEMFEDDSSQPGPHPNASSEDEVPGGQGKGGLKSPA
Description: (§1) Other assays described below, measure the ability of the compounds of the present invention to bind to, and/or activate various retinoid receptor subtypes. When in these assays a compound binds to a given receptor subtype and activates the transcription of a reporter gene through that subtype, then the compound is considered an agonist of that receptor subtype. […] In the below described assays the ability of the compounds to bind to RARα, RARβ, RARγ, RXRα, RXRβ and RXRγ receptors, and the ability or inability of the compounds to activate transcription of a reporter gene through these receptor subtypes can be tested. […] However, some of the compounds of the invention may behave as retinoid antagonists or partial antagonists and/or as inverse agonists. Because of the complex distribution of the different retinoid receptors in various organs of the mammalian body partial agonists and partial antagonists and compounds which have the characteristics of both may lend themselves to particularly useful therapeutic applications and may avoid serious side effects of conventional retinoid drugs.
(§2) A holoreceptor transactivation assay and a ligand binding assay which measure the antagonist/agonist like activity of the compounds of the invention, or their ability to bind to the several retinoid receptor subtypes, respectively, are described in published PCT Application No. WO WO93/11755 (particularly on pages 30-33 and 37-41) published on Jun. 24, 1993, the specification of which is also incorporated herein by reference. A detailed experimental procedure for holoreceptor transactivations has been described by Heyman et al. Cell 68, 397-406, (1992); Allegretto et al. J. Biol. Chem. 268, 26625-26633, and Mangelsdorf et al. The Retinoids: Biology, Chemistry and Medicine, pp 319-349, Raven Press Ltd., New York, which are expressly incorporated herein by reference. The results obtained in this assay are expressed in EC50 numbers, as they are also in the chimeric receptor transactivation assay. The results of ligand binding assay are expressed in Kd numbers. (See Cheng et al. Biochemical Pharmacology Vol. 22 pp 3099-3108, expressly incorporated herein by reference.)
(§3) Table 1 discloses the activity of certain exemplary compounds of the invention in the above-described chimeric receptor transactivation assay, holoreceptor transactivation assay and a ligand binding assays. Particularly, the transactivation data pertaining to RAR receptors were obtained in the chimeric assay, and the data pertaining to transactivation of RXR receptors were obtained in the holoreceptor transactivation assay.

RXRγ = molecular target: T2, RXRγ (Homo sapiens, UniProt P48443); assay: ligand binding assay, RXRγ; settings: read-out: RXR Bind Ki γ
T2 sequence (P48443 1-463): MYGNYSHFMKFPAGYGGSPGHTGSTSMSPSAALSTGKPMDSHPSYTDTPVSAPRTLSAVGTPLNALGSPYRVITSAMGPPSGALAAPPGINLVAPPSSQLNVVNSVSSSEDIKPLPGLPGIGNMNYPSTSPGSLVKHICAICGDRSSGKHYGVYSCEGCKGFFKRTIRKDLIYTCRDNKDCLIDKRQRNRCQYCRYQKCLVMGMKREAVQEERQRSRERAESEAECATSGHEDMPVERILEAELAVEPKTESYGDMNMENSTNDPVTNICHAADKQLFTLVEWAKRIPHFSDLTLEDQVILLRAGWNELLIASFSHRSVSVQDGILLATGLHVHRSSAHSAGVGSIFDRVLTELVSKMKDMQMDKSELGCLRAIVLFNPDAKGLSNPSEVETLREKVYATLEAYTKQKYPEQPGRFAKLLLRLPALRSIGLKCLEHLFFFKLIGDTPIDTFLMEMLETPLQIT
Description: as §1, §2, §3

RARβ = molecular target: T3, RARβ (Homo sapiens, UniProt P10826); assay: ligand binding assay, RARβ; settings: read-out: RAR Bind Ki β
T3 sequence (P10826 1-448 isoform P10826-2): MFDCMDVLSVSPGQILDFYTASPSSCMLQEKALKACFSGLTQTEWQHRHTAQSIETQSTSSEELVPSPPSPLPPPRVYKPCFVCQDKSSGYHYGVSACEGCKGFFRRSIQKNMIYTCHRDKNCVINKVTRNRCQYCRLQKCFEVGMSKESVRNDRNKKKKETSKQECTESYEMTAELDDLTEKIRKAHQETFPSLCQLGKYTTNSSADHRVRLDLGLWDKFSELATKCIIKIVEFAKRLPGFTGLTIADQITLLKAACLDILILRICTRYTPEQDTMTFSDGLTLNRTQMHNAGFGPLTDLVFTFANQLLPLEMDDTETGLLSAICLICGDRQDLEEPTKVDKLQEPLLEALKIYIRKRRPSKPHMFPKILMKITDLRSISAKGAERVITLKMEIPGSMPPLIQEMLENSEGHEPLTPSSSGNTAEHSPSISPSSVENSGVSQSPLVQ
Description: as §1, §2, §3

RARα = molecular target: T4, RARα (Homo sapiens, UniProt P10276); assay: ligand binding assay, RARα; settings: read-out: RAR Bind Ki α
T4 sequence (P10276 1-462): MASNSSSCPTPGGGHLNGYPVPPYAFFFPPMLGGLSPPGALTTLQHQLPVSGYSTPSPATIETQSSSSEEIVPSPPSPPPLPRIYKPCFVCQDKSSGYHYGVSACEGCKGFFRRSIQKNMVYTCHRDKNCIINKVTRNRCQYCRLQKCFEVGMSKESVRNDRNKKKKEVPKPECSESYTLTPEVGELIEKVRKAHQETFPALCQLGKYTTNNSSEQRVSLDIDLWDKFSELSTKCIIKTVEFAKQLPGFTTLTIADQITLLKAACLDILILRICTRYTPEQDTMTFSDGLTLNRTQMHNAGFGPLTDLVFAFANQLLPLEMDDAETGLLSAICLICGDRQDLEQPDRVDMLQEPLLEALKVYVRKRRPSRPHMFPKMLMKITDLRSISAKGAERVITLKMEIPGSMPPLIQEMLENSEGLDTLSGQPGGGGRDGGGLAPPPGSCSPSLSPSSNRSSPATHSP
Description: as §1, §2, §3

RXRα = molecular target: T5, RXRα (Homo sapiens, UniProt P19793); assay: ligand binding assay, RXRα; settings: read-out: RXR Bind Ki α
T5 construct: expressed in transfected cells
T5 sequence (P19793 1-462): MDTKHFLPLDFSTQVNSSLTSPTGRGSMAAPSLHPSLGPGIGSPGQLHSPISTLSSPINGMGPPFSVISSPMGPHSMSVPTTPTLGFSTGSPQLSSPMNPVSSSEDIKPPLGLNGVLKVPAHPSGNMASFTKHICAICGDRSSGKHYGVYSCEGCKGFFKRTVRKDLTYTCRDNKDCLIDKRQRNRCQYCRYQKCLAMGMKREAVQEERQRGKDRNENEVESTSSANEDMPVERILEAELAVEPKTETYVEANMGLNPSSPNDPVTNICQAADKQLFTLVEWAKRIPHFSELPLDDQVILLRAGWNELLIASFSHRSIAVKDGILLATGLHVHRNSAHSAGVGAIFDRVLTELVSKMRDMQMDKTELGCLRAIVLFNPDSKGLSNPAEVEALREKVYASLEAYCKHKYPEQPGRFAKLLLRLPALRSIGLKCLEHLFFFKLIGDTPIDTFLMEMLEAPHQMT
Description: as §1, §2, §3

ornithine decarboxylase = settings: literature; cited from earlier work

Ki (RARγ) [µM] | Ki (RXRγ) [µM] | Ki (RARβ) [µM] | Ki (RARα) [µM] | Ki (RXRα) [µM] | Structure (SMILES) | inhibition of induction of ODC activity by TPA (ornithine decarboxylase)
> 30 | > 100 | > 30 | > 30 | 56 | CC(C)N1C(=O)CC(C)(C)c2cc(N(C)c3ccc(C(=O)O)cc3)ccc21 [Compound 5, 4-[(1-Isopropyl-4,4-dimethyl-2-oxo-1,2,3,4-tetrahydroquinolin-6-yl)methylamino]benzoic Acid] | –
– | – | – | – | – | CC1=C(/C=C/C(C)=C/C=C/C(C)=C/C(=O)O)C(C)(C)CCC1 [Retinoic acid, retinoic acid] | inhibits this induction of ODC activity by TPA

— patent US6127382A, “Amines substituted with a tetrahydroquinolinyl group an aryl or heteroaryl group and an alkyl group, having retinoid-like biological activity” (Allergan Sales, Inc., priority 1999, dated 2000)
